{"source": "patent US10058529B2", "about": "“Nutraceutical composition for PDE4 inhibition, enhanced dopamine metabolism and long term potentiation” (priority 2013, dated 2018)", "origin": "cited, not measured here", "key": {"[1]": {"tested_on": "acetylcholine", "details": "in vivo"}, "[2]": {"tested_on": "phosphodiesterase enzymes (PDE 1 through 5)"}, "[3]": {"details": "co-administered piperine"}, "[4]": {"tested_on": "PDE4", "details": "reference 38"}, "[5]": {"details": "low doses"}}, "data": [{"smiles": "CC(=O)O[C@H](CC(=O)[O-])C[N+](C)(C)C", "note": "[Acetyl-L-carnitine, acetyl-L-carnitine]", "values": [{"measurement": "levels of acetylcholine in the brain", "setting": "[1]", "value": "increase"}]}, {"smiles": "O=c1cc(-c2ccc(O)c(O)c2)oc2cc(O)cc(O)c12", "note": "[Luteolin, luteolin]", "values": [{"measurement": "inhibition of phosphodiesterase enzymes (PDE 1 through 5)", "setting": "[2]", "value": "can inhibit"}]}, {"smiles": "O=C(/C=C/C=C/c1ccc2c(c1)OCO2)N1CCCCC1", "note": "[Piperine, piperine]", "values": [{"measurement": "bioavailability of resveratrol", "setting": "[3]", "value": "enhance the bioavailability"}]}, {"smiles": "COc1ccc([C@@]23C=CC(=O)C[C@@H]2N(C)CC3)cc1OC", "note": "[mesembrenone]", "values": [{"measurement": "PDE4 inhibition", "setting": "[4]", "value": "significantly inhibit"}]}, {"smiles": "COc1ccc(C2CNC(=O)C2)cc1OC1CCCC1", "note": "(centres unmarked) [rolipram]", "values": [{"measurement": "side effect", "setting": "[5]", "value": "emesis (vomiting) at low doses"}]}]}
